Experimental data reported in patent US20240124465A1, “MOLECULES AND METHODS RELATED TO TREATMENT OF DISORDERS ASSOCIATED WITH JAK-2 SIGNALING DYSFUNCTION” (ST. JUDE CHILDREN'S RESEARCH HOSPITAL, priority 2020, published 2024).

Columns and labels:
Type in all cases: cell-based
JAK2 = test: Western blot assay, JAK2 protein degradation; conditions: MHH-CALL-4 cells, vehicle control = 100%
In short: (§1)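 MHH-CALL-4 cells lysed in RIPA with protease inhibitors; 10-20 μg total protein per lane run on 4%-12% Bis-Tris gels and immunoblotted with fluorescence imaging. Target signal normalized to ACBT and expressed relative to vehicle control set at 100%.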

JAK1 = molecular target: T1, JAK1 (Homo sapiens, UniProt P23458); test: Western blot assay, JAK1 protein degradation; conditions: MHH-CALL-4 cells, vehicle control = 100%
T1 construct: endogenous in cells; host or cells: MHH-CALL-4
T1 sequence (P23458 whole entry): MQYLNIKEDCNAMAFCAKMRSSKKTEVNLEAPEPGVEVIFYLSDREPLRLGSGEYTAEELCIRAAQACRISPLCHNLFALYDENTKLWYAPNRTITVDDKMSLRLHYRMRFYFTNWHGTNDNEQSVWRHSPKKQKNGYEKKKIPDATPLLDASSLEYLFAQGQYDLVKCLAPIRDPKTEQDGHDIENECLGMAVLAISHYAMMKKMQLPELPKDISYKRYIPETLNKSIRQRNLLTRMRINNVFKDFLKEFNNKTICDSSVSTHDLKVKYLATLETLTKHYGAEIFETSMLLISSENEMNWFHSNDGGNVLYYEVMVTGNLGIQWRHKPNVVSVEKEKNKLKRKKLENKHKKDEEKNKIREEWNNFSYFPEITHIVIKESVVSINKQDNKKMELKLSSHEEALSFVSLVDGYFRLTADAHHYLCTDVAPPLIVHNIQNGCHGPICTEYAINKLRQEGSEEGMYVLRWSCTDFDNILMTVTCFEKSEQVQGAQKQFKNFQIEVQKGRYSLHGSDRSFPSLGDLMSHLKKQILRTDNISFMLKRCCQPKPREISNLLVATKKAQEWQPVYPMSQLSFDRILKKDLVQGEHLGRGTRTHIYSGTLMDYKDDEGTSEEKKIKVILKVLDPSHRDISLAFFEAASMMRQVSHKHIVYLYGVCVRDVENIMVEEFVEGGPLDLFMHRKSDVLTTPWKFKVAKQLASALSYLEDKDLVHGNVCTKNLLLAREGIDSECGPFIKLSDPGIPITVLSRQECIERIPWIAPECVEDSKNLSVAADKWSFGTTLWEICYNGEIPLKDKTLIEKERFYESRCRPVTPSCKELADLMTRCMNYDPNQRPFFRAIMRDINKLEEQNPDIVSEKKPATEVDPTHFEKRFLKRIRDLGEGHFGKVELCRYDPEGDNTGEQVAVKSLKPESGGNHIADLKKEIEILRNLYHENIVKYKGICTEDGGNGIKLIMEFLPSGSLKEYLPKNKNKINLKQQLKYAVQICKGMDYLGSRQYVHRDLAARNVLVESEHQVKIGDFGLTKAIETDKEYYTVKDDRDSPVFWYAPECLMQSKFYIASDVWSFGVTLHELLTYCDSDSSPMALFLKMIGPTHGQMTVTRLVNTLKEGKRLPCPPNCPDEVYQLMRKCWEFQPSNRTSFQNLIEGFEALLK
Protocol: (§2) Western blot assay: MHH-CALL-4 Cells were washed twice with ice-cold PBS and lysed in RIPA lysis buffer (Sigma) freshly supplemented with Halt™ Protease Inhibitor Cocktail (ThermoFisher) for 15 minutes on ice. The cell pellet was removed by centrifugation at 13,000 g at 4° C. for 15 minutes. Protein concentration was measured by BCA assay (Thermo Fisher Scientific). Proteins were denatured in NuPAGE LDS 4× sample buffer supplemented with reducing agents (Invitrogen). Typically, 10-20 μg of total protein was loaded per lane on a 4%-12% NUPAGE Bis-Tris gradient gel (Invitrogen) and analyzed by standard immunoblotting and imaged using Li—COR Odyssey CLx (LI-COR Biotechnology, Lincoln, NE). To access the protein degradation, the signal of target protein was normalized by the signal of ACBT and the signal of vehicle control was set as 100%. Primary antibodies used were: JAK1 (Cell Signaling #3332S), JAK2 (#3230S), JAK3 (#8827S), TYK2 (#9312S), GSPT1 (#14980S), CRBN (#71810S), IKZF1 (Santa Cruz Biotechnology, SC-398265) and ACBT (Santa Cruz Biotechnology, SC-47778).

MHH-CALL-4 cells = test: Cytotoxicity assay (resazurin, 72 hours); set-up: AUC: unit not given beside the values; conditions: for EC50: MHHCALL4, resazurin; for AUC: area under the dose-response curve
In short: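 Cells grown in RPMI1640 with 10% FBS, 2×10⁵ per well, were exposed to pin-transferred compounds in triplicate for 72 h at 37 °C, 5% CO2. Viability was read after 4 h resazurin incubation. Dose-response AUC was calculated per compound; selected data were fitted by non-linear regression.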

IKZF1 = molecular target: T2, IKZF1 (Homo sapiens, UniProt Q13422); test: Western blot assay, IKZF1 neosubstrate degradation; conditions: MHH-CALL-4 cells, vehicle control = 100%
T2 construct: endogenous in cells; host or cells: MHH-CALL-4
T2 sequence (Q13422 whole entry): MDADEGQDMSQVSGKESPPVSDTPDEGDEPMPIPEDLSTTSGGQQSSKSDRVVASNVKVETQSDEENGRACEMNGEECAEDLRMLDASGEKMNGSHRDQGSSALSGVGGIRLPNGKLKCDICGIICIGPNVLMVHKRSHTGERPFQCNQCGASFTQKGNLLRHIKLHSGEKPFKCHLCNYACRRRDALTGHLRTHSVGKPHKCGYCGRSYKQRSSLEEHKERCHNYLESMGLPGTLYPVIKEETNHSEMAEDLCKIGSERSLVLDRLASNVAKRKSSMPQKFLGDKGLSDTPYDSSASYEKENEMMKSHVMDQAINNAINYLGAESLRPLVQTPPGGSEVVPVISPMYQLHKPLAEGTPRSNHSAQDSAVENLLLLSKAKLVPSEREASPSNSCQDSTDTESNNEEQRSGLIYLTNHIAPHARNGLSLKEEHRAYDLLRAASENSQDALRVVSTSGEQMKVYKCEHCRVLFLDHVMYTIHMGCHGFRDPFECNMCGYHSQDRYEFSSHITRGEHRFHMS
Protocol: as §2

GSPT1 = molecular target: T3, GSPT1 (Homo sapiens, UniProt P15170); test: Western blot assay, GSPT1 neosubstrate degradation; conditions: MHHCALL4; 100 nM, 24 h; MHH-CALL-4 cells; vehicle control = 100%
T3 construct: endogenous in cells; host or cells: MHH-CALL-4
T3 sequence (P15170 whole entry): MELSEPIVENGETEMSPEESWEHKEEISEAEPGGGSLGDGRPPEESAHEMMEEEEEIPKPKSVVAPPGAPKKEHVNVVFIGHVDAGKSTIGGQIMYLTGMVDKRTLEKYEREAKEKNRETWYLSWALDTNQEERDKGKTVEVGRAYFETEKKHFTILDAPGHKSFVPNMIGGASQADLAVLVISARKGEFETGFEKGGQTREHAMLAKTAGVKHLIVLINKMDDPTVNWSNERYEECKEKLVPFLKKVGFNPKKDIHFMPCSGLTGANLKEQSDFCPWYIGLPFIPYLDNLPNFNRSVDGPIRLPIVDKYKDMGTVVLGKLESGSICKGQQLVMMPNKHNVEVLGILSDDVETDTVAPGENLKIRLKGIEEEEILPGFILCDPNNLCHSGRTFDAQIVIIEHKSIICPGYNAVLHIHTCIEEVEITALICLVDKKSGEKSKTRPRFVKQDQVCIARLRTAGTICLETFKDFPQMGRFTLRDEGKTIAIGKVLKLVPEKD
In short: as §1

TYK2 = molecular target: T4, TYK2 (Homo sapiens, UniProt P29597); test: Western blot assay, TYK2 protein degradation; conditions: MHH-CALL-4 cells, vehicle control = 100%
T4 construct: endogenous in cells; host or cells: MHH-CALL-4
T4 sequence (P29597 whole entry): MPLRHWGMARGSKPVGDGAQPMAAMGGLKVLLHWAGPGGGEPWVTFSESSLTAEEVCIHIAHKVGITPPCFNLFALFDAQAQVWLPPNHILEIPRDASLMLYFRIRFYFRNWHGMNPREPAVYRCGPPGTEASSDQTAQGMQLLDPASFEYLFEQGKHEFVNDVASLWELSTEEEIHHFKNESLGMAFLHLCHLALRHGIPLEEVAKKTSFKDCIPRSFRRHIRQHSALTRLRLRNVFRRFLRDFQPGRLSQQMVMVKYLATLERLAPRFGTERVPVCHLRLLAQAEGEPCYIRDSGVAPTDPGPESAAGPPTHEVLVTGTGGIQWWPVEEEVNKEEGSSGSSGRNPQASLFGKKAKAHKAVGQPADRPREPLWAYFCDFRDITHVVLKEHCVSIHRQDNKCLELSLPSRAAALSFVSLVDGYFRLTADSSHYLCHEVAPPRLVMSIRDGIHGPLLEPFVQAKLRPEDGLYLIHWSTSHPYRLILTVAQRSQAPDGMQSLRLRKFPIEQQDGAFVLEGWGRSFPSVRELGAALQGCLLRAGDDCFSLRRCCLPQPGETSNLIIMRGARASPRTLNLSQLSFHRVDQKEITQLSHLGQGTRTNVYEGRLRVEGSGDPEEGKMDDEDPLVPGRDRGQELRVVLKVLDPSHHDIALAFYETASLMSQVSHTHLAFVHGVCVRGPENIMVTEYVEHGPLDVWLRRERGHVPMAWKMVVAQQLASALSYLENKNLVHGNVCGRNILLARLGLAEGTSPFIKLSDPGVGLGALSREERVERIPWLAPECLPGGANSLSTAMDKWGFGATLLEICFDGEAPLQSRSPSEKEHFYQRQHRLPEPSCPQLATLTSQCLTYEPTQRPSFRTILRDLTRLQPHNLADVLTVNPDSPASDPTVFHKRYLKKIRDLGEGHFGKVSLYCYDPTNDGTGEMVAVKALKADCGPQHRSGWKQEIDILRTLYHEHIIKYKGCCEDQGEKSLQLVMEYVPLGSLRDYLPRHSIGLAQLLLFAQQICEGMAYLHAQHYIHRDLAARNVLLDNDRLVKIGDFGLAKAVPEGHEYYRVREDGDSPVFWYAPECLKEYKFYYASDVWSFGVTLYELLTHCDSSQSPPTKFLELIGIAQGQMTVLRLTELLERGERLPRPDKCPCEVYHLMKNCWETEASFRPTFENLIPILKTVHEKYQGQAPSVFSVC
Protocol: as §2

JAK3 = molecular target: T5, JAK3 (Homo sapiens, UniProt P52333); test: Western blot assay, JAK3 protein degradation; conditions: MHHCALL4; 100 nM, 24 h; MHH-CALL-4 cells; vehicle control = 100%; read-out: Target Protein Degradation (% remaining at 100 nM, 24 h) JAK3
T5 construct: endogenous in cells; host or cells: MHH-CALL-4
T5 sequence (P52333 1-1124): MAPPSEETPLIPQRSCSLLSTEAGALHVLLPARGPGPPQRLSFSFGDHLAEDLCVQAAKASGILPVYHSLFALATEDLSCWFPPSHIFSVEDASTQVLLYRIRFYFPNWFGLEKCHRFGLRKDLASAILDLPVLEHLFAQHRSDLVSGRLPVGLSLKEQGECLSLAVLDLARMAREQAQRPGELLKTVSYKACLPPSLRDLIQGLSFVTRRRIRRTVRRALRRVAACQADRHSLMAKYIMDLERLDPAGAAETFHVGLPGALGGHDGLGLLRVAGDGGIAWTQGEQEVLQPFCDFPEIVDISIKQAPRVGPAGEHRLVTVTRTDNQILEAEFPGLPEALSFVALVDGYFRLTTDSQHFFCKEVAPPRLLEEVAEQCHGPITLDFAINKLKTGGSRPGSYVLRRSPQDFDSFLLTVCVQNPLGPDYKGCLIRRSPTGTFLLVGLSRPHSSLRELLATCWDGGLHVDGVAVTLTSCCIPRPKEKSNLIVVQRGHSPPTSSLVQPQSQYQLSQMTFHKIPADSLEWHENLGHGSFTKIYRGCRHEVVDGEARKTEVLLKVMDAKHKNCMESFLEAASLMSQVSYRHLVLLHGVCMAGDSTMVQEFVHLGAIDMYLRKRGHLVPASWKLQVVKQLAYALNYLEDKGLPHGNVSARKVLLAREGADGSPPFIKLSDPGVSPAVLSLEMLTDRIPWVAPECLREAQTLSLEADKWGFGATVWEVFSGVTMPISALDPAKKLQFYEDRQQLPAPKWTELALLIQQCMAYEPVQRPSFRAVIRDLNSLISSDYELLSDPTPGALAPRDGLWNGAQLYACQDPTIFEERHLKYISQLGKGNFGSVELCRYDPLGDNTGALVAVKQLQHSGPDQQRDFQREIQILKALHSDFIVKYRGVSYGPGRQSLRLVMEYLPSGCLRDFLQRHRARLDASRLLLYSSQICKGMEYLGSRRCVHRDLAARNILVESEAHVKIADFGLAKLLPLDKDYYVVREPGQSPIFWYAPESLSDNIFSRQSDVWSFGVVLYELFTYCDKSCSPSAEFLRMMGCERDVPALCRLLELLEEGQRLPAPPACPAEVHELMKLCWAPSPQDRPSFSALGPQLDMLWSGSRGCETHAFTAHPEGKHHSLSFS
In short: as §1

Target Protein Degradation (% remaining at 100 nM, 24 h) JAK1 (JAK1) [% remaining] | Neosubstrate Degradation (% remaining at 100 nM, 24 h) IKZF1 (IKZF1) [% remaining] | remaining activity at 0.1 µM (GSPT1) [%] | Target Protein Degradation (% remaining at 100 nM, 24 h) TYK2 (TYK2) [% remaining] | remaining activity at 0.1 µM (JAK3) [%] | SMILES | Target Protein Degradation (% remaining at 100 nM, 24 h) JAK2 (JAK2) [% remaining] | EC50 (MHH-CALL-4 cells) [nM] | AUC (MHH-CALL-4 cells)
124 | 79 | 71 | 142 | 65 | CCS(=O)(=O)N1CC(CC#N)(n2cc(-c3nc(Nc4ccc(C(=O)NCCCCOc5ccc(C6CCC(=O)NC6=O)cc5)cc4)nc4[nH]ccc34)cn2)C1 (stereo not drawn) [Compound 5] | 22 | 2.2 | 124
120 | – | – | 121 | 58 | CCS(=O)(=O)N1CC(CC#N)(n2cc(-c3nc(Nc4ccc(C(=O)NCCN5CCN(c6ccc(C7CCC(=O)NC7=O)cc6)CC5)cc4)nc4[nH]ccc34)cn2)C1 (stereo not drawn) [Compound 37, 4-((4-(1-(3-(cyanomethyl)-1-(ethylsulfonyl)azetidin-3-yl)-1H-pyrazol-4-yl)-7H-pyrrolo[2,3-d]pyrimidin-2-yl)amino)-N-(2-(4-(4-(2,6-dioxopiperidin-3-yl)phenyl)piperazin-1-yl)ethyl)benzamide] | 26 | 2.7 | 149
97 | – | – | 125 | 46 | CCS(=O)(=O)N1CC(CC#N)(n2cc(-c3nc(Nc4ccc(C(=O)NCCCCOc5cccc(C6CCC(=O)NC6=O)c5)cc4)nc4[nH]ccc34)cn2)C1 (stereo not drawn) [Compound 41, 4-((4-(1-(3-(cyanomethyl)-1-(ethylsulfonyl)azetidin-3-yl)-1H-pyrazol-4-yl)-7H-pyrrolo[2,3-d]pyrimidin-2-yl)amino)-N-(4-(3-(2,6-dioxopiperidin-3-yl)phenoxy)butyl)benzamide] | 28 | 51.2 | 202
98 | – | – | 119 | – | CCS(=O)(=O)N1CC(CC#N)(n2cc(-c3nc(Nc4ccc(C(=O)NC5CCN(c6ccc(C7CCC(=O)NC7=O)cc6)CC5)cc4)nc4[nH]ccc34)cn2)C1 (stereo not drawn) [Compound 46, 4-((4-(1-(3-(cyanomethyl)-1-(ethylsulfonyl)azetidin-3-yl)-1H-pyrazol-4-yl)-7H-pyrrolo[2,3-d]pyrimidin-2-yl)amino)-N-(1-(4-(2,6-dioxopiperidin-3-yl)phenyl)piperidin-4-yl)benzamide] | 20 | 9.25 | –
114 | – | 86 | 89 | 101 | CCS(=O)(=O)N1CC(CC#N)(n2cc(-c3nc(Nc4ccc(C(=O)NCCCCOc5ccc(C6CCC(=O)N(C)C6=O)cc5)cc4)nc4[nH]ccc34)cn2)C1 (stereo not drawn) [Compound 47, 4-((4-(1-(3-(cyanomethyl)-1-(ethylsulfonyl)azetidin-3-yl)-1H-pyrazol-4-yl)-7H-pyrrolo[2,3-d]pyrimidin-2-yl)amino)-N-(4-(4-(1-methyl-2,6-dioxopiperidin-3-yl)phenoxy)butyl)benzamide] | 128 | 3.35 | –
59 | – | 74 | – | 11 | CCS(=O)(=O)N1CC(CC#N)(n2cc(-c3nc(Nc4ccc(C(=O)N5CCC(CN6CCN(c7ccc(C8CCC(=O)NC8=O)cc7)CC6)CC5)cc4)nc4[nH]ccc34)cn2)C1 (stereo not drawn) [Compound 49, 2-(3-(4-(2-((4-(4-((4-(4-(2,6-dioxopiperidin-3-yl)phenyl)piperazin-1-yl)methyl)piperidine-1-carbonyl)phenyl)amino)-7H-pyrrolo[2,3-d]pyrimidin-4-yl)-1H-pyrazol-1-yl)-1-(ethylsulfonyl)azetidin-3-yl)acetonitrile] | 13 | 4 | 199
85 | – | 137 | – | 28 | CCS(=O)(=O)N1CC(CC#N)(n2cc(-c3nc(Nc4ccc(C(=O)N5CCC6(CC5)CCN(c5ccc(C7CCC(=O)NC7=O)cc5)CC6)cc4)nc4[nH]ccc34)cn2)C1 (stereo not drawn) [Compound 50, 2-(3-(4-(2-((4-(9-(4-(2,6-dioxopiperidin-3-yl)phenyl)-3,9-diazaspiro[5.5]undecane-3-carbonyl)phenyl)amino)-7H-pyrrolo[2,3-d]pyrimidin-4-yl)-1H-pyrazol-1-yl)-1-(ethylsulfonyl)azetidin-3-yl)acetonitrile] | 11 | 9 | 202
126 | – | 72 | – | 27 | CCS(=O)(=O)N1CC(CC#N)(n2cc(-c3nc(Nc4ccc(C(=O)N5CCC6(CCN(c7ccc(C8CCC(=O)NC8=O)cc7)CC6)C5)cc4)nc4[nH]ccc34)cn2)C1 (stereo not drawn) [Compound 52, 2-(3-(4-(2-((4-(8-(4-(2,6-dioxopiperidin-3-yl)phenyl)-2,8-diazaspiro[4.5]decane-2-carbonyl)phenyl)amino)-7H-pyrrolo[2,3-d]pyrimidin-4-yl)-1H-pyrazol-1-yl)-1-(ethylsulfonyl)azetidin-3-yl)acetonitrile] | 16 | 9 | 180

SMILES | Target Protein Degradation (% remaining at 100 nM, 24 h) JAK1 (JAK1) [% remaining] | Neosubstrate Degradation (% remaining at 100 nM, 24 h) IKZF1 (IKZF1) [% remaining] | remaining activity at 0.1 µM (GSPT1) [%] | Target Protein Degradation (% remaining at 100 nM, 24 h) TYK2 (TYK2) [% remaining] | remaining activity at 0.1 µM (JAK3) [%] | Target Protein Degradation (% remaining at 100 nM, 24 h) JAK2 (JAK2) [% remaining] | EC50 (MHH-CALL-4 cells) [nM] | AUC (MHH-CALL-4 cells)
CCS(=O)(=O)N1CC(CC#N)(n2cc(-c3nc(Nc4ccc(C(=O)NCCCN5CC6CCC(C5)N6c5ccc(C6CCC(=O)NC6=O)cc5)cc4)nc4[nH]ccc34)cn2)C1 (stereo not drawn) [Compound 55, 4-((4-(1-(3-(cyanomethyl)-1-(ethylsulfonyl)azetidin-3-yl)-1H-pyrazol-4-yl)-7H-pyrrolo[2,3-d]pyrimidin-2-yl)amino)-N-(3-(8-(4-(2,6-dioxopiperidin-3-yl)phenyl)-3,8-diazabicyclo[3.2.1]octan-3-yl)propyl)benzamide] | 113 | – | 75 | – | 44 | 19 | 596 | 149
